14 molecules from ChEMBL document CHEMBL5126555, “Targeting breast cancer resistance protein (BCRP/ABCG2): Functional inhibitors and expression modulators” (Eur J Med Chem, 2022) can be followed below.

Broadly, the IC50 is the concentration that gives 50% inhibition.

In data set [1] the target is T1, Broad substrate specificity ATP-binding cassette transporter ABCG2 (Homo sapiens, UniProt Q9UNQ0).
T1 sequence (Q9UNQ0 whole entry): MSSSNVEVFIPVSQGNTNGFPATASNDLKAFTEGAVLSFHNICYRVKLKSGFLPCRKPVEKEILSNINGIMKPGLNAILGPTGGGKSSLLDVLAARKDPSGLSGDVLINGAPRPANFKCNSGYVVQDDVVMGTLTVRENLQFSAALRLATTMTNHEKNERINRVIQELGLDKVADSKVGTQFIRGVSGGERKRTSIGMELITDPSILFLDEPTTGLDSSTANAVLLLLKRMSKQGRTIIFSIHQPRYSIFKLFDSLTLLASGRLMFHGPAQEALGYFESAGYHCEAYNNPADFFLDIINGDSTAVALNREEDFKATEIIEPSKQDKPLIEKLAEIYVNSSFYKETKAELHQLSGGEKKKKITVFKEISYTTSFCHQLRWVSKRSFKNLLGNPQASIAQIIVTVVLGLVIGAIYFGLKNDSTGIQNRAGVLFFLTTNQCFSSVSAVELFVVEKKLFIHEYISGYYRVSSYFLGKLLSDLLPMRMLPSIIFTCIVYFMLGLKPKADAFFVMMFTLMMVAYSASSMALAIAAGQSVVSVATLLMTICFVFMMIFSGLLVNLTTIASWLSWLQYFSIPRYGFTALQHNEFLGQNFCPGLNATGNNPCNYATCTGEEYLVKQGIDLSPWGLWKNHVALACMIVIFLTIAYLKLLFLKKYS
The experiment in a line: Inhibition of ABCG2 (unknown origin) expressed in human HEK293 cells mediated mitoxantrone efflux assessed as intracellular mitoxantrone level and measured after 30 mins by FACSflow cytometry analysis. It counts as cell-based. (In flow cytometry, cells or beads pass a laser one at a time.)

The target of data set [2] is T1, Broad substrate specificity ATP-binding cassette transporter ABCG2. The experiment in a line: Inhibition of ABCG2 (unknown origin) expressed in human HEK293 cells membrane vesicles assessed inhibition of BCRP- mediated transport of 3[H]-E1S for 1 to 5 mins using [3H]-estrone sulfate as substrate by rapid filtration technique. It counts as cell membranes, Membrane vesicle.

Data set [3] shares this target. The experiment in a line: Inhibition of ABCG2 (unknown origin) expressed in human K562 cells assessed as extrusion of Hoechst 33342 using Hoechst 33342 as substrate by flow cytometry. It counts as cell-based.
Data set [4] shares this target. The experiment in a line: Inhibition of ABCG2 (unknown origin) expressed in human MCF7-VP cells mediated mitoxantrone efflux assessed as intracellular mitoxantrone level and measured after 45 mins by flow cytometry analysis. Format: cell-based.
Data set [5] has the same target. The experiment in a line: Inhibition of human ABCG2 expressed in dog MDCK-II-BCRP cells membrane vesicles mediated transport of 3[H]-methotrexate for 5 mins using [3H]-methotrexate as substrate by radiometric scintillation analysis. Format: cell membranes, Membrane vesicle.
For data set [6] the target is unchanged. The experiment in a line: Inhibition of human ABCG2 expressing membrane vesicles assessed inhibition of BCRP- mediated transport of [3H]estrone 3-sulfate for 2 mins using [3H]-estrone sulfate as substrate by radiometric scintillation analysis. Format: cell membranes, Membrane vesicle.
Data set [7] has the same target.
Description: Inhibition of ABCG2 (unknown origin) expressed in human MCF7 cells membrane mediated [125I]iodoarylazidoprazosin photolabelling for 5 mins followed by UV light irradiation for 10 mins by radiometric scintillation analysis
The target is the same in data set [8]. The experiment in a line: Inhibition of human ABCG2 expressed in human HEK293 cells mediated pheophorbide A efflux assessed as intracellular pheophorbide A accumulation for 45 mins by FACSort flow cytometry. Format: cell-based.
Data set [9] shares this target. The experiment in a line: Inhibition of ABCG2 (unknown origin) expressed in human S1M180 cells mediated [3H]-mitoxantrone efflux assessed as intracellular [3H]-mitoxantrone level by flow cytometry. It counts as cell-based.
Data set [10] has the same target. The experiment in a line: Inhibition of ABCG2 (unknown origin) expressed in human NCI-H460 cells mediated pheophorbide A efflux for 2 to 20 hr by fluorescence plate reader analysis. It counts as cell-based.
Data set [11] shares this target. The settings on record: saos-2.
Description: Inhibition of ABCG2 (unknown origin) expressed in human SAOS-2 cells mediated Hoechst 33342 efflux preincubated with compound for 15 mins followed by substrate addition and measured after 45 mins using Hoechst 33342 as substrate by flow cytometry
Data set [12] shares this target. The experiment in a line: Inhibition of ABCG2 (unknown origin) expressed in human MCF7 cells membrane mediated [125I]iodoarylazidoprazosin photolabelling for 10 mins followed by UV light irradiation for 10 mins by radiometric scintillation analysis. Format: cell membranes.
The target is the same in data set [13]. The experiment in a line: Inhibition of ABCG2 (unknown origin) expressed in human S1M180 cells assessed as intracellular accumulation of rhodamine 123 using rhodamine 123 as substrate by flow cytometry. It counts as cell-based.
Data set [14] has the same target. The experiment in a line: Inhibition of ABCG2 (unknown origin) expressed in human HEK293 cells assessed as BODIPY-Prazosin uptake and measured after 2 hrs by FACScan flow cytometry analysis. It counts as cell-based.

With `c1ccc2c(c1)OCO2`, the IC50 in [1] came out at 940 nM.
For `O[C@@H](c1cc(C(F)(F)F)nc2c(C(F)(F)F)cccc12)[C@H]1CCCCN1` [(S,R)-MEFLOQUINE], the IC50 in data set [2] amounted to 18000 nM.
In the case of `COc1cc(Nc2c(C#N)cnc3cc(OCCCN4CCN(C)CC4)c(OC)cc23)c(Cl)cc1Cl` [BOSUTINIB], the IC50 in data set [3] stood at 2000 nM.
For the molecule `COc1cc(/C=C/C(=O)CC(=O)/C=C/c2ccc(O)c(OC)c2)ccc1O` [CURCUMIN], the half-inhibitory concentration (IC50) in data set [4] was determined as 1630 nM.
The molecule `CC1=NN(c2ccc(C)c(C)c2)C(=O)/C1=N\Nc1cccc(-c2cccc(C(=O)O)c2)c1O` [ELTROMBOPAG] displayed an IC50 in [5] of 3100 nM.
`COc1cc(Nc2ncc(F)c(Nc3ccc4c(n3)N(COP(=O)(O)O)C(=O)C(C)(C)O4)n2)cc(OC)c1OC` [FOSTAMATINIB] yielded an IC50 in data set [6] of 50 nM.
As for `CS(=O)(=O)CCNCc1ccc(-c2ccc3ncnc(Nc4ccc(OCc5cccc(F)c5)c(Cl)c4)c3c2)o1` [LAPATINIB], the IC50 in [7] worked out at 3200 nM.
Regarding `COC(=O)C1=C(C)NC(C)=C(C(=O)OC)C1c1ccccc1[N+](=O)[O-]` [NIFEDIPINE], the half-maximal inhibitory concentration (IC50) in data set [8] came to 50500 nM.
Regarding `CNC(=O)c1cc(Oc2ccc(NC(=O)Nc3ccc(Cl)c(C(F)(F)F)c3)c(F)c2)ccn1` [REGORAFENIB], the IC50 in data set [9] turned out to be 3000 nM.
On to `COC(=O)[C@H]1[C@H]2C[C@@H]3c4[nH]c5cc(OC)ccc5c4CCN3C[C@H]2C[C@@H](OC(=O)c2cc(OC)c(OC)c(OC)c2)[C@@H]1OC` [RESERPINE], for which the IC50 in [10] is 11800 nM.
Take `CNC(=O)c1cc(Oc2ccc(NC(=O)Nc3ccc(Cl)c(C(F)(F)F)c3)cc2)ccn1` [SORAFENIB]: the half-inhibitory concentration (IC50) in data set [11] came out at 3100 nM.
As to `COc1cc2nccc(Oc3ccc(NC(=O)Nc4cc(C)on4)c(Cl)c3)c2cc1OC` [TIVOZANIB], in [12], the IC50 came to 70 nM.
With `COc1cc2c(Nc3ccc(Br)cc3F)ncnc2cc1OCC1CCN(C)CC1` [VANDETANIB], in [13], the IC50 was found to be 200 nM.
As for `CS(=O)(=O)c1ccc(C(=O)Nc2ccc(Cl)c(-c3ccccn3)c2)c(Cl)c1` [VISMODEGIB], in [14], the half-maximal inhibitory concentration (IC50) was determined as 1400 nM.
